Test results as given in patent US12378224B2 (Dong-A Socio Holdings Co., Ltd., priority 2016, dated 2025).
pIC50: −log10 of the molar value.

Assays:
[1] = biological target: human c-MER catalytic domain (Homo sapiens (Human), UniProt Q12866); test: TR-FRET Kinase Activity Biochemical Assay (LanthaScreen); details: 10 uM ATP, 1 hour, kinase not given
Summary of the method: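 Activity was quantified as the ratio of 495 nm to 520 nm emission (excitation 340 nm) in a LanthaScreen TR-FRET format. The enzyme was the human c-MER catalytic domain, and the substrate was fluorescein-poly-GT. Detection used 2 nM Tb anti-phosphotyrosine antibody for 30 min after termination with 10 mM EDTA.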

[2] = biological target: CD8-MerTK (Ba/F3-CDM cells) (Homo sapiens, UniProt Q12866); test: In Cell MER Kinase Assay Using BaF3 Cellular System; assay type: cell-based; details: Ba/F3-CDM proliferation without IL-3, 48 hours, Celltiter-Glo
From the text: CD8-MerTK is a chimeric fusion protein consisting of the extracellular and transmembrane domains of the human CD8α (amino acids 1 to 209) at its N-terminus and the kinase domain and intracellular parts of MerTK (amino acids 521-994) at its C-terminus. To establish an in cell kinase assay for MerTK kinase, the IL-3 dependent Ba/F3 cells of murine lymphoid origin was transfected with CD8-MerTK. The resulting Ba/F3-CDM line was then validated that Ba/F3-CDM cell proliferation is completely dependent on the activity of MerTK kinase activity when growing in the absence of IL-3. For a routine cellular assay, Ba/F3-CDM cells were seeded at 2,000 cells per well in 384-well cell culture plate containing DMEM/10% FBS culture media and incubated for 24 hours before addition of compounds pre-diluted in culture media. Following compound treatment, cells were further incubated for 48 hours and the proliferation was measured. To discriminate a Ba/F3 growth inhibition by a specific inhibition of MerTK kinase following compound treatment vs growth inhibition due to a non-specific unintended cytotoxicity of compounds, we routinely carried out control sets of Ba/F3 cells in parallel that grown in IL3-supplemented growth media. In the presence of IL-3, the proliferation of Ba/F3 is no longer dependent on the MerTK activity. Cell growth and proliferation was measured with Celltiter-Glo™ system (Promega, USA) according to the manufacturer's instruction. The half-maximal growth inhibitory concentration (GI50) value was calculated with Prism6.0 software (GraphPad, USA).

[3] = biological target: human MER (528-end) (Homo sapiens (Human), UniProt Q12866); test: HTRF Kinase Activity Biochemical Assay (KinEASE-TK); details: 10 uM ATP
Summary of the method: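 Activity read-out is the HTRF ratio (665 nm over 620 nm emission, ×10,000; excitation 340 nm) after 1 h detection with 0.375 nM Eu3+-cryptate anti-TK antibody plus 0.062 uM SA-XL665. Preceding kinase step: human MER (528-end), biotinylated TK substrate, 1 h, room temperature.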

[4] = biological target: BCR fusion to kinase domain of MerTK (Ba/F3-MerTK) (Homo sapiens, UniProt Q12866); test: In Cell TAM Kinase Assay Using BaF3 Cellular System; assay type: cell-based, murine; details: Ba/F3 BCR-kinase fusion proliferation, 72 hours, Cell Titer Glo; kinase not given; read-out: IC50
Summary of the method: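 Ba/F3 murine pro-B cells expressing BCR–MerTK kinase-domain fusion (IL-3 independent), seeded at 1,000 cells/well onto compound and grown 72 h. Viability read by CellTiter-Glo 2.0 luminescence after 30 min at room temperature.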

Sequence of BCR fusion to kinase domain of MerTK (Ba/F3-MerTK) (Q12866 21-999 limits assumed, change not shown): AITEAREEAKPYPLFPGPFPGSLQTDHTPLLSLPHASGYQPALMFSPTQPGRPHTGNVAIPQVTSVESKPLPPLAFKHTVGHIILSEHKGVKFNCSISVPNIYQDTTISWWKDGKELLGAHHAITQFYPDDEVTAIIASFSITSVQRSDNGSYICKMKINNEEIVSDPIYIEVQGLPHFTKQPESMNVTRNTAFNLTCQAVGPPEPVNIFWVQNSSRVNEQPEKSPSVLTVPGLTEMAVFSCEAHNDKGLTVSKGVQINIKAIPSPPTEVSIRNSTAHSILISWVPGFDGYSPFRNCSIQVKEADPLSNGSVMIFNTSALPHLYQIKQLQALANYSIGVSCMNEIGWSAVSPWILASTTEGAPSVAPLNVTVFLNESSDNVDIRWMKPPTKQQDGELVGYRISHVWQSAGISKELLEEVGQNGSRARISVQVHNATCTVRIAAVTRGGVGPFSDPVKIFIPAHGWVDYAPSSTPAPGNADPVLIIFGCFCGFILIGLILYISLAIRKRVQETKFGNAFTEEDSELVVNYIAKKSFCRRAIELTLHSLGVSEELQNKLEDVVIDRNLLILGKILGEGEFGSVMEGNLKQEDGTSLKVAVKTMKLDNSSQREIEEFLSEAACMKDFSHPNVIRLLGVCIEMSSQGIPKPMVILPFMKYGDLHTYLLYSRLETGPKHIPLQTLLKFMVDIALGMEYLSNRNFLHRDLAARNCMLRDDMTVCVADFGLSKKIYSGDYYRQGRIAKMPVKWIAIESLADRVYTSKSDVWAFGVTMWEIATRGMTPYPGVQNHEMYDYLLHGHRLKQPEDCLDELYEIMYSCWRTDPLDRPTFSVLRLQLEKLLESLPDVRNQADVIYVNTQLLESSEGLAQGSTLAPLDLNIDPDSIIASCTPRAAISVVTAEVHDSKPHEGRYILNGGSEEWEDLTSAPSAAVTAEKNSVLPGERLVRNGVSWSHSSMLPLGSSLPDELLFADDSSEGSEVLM
Sequence of CD8-MerTK (Ba/F3-CDM cells) (Q12866 21-999 limits assumed, stated change not applied): as the sequence (Q12866 21-999 limits assumed, change not shown) above
Sequence of human MER (528-end) (Q12866 528-999 limits assumed): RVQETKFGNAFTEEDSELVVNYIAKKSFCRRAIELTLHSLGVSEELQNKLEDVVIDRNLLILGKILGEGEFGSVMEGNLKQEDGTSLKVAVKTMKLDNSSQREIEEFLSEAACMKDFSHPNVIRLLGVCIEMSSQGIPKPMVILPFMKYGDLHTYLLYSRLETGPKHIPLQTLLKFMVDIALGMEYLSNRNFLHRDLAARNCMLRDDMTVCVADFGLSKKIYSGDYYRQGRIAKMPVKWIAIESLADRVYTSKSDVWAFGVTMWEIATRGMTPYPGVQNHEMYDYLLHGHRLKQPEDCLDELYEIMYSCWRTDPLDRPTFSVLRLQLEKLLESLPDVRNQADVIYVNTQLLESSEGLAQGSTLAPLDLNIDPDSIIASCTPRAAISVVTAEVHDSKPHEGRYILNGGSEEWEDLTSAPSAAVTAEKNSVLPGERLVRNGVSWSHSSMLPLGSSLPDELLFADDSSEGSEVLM
Sequence of human c-MER catalytic domain (Q12866 587-858): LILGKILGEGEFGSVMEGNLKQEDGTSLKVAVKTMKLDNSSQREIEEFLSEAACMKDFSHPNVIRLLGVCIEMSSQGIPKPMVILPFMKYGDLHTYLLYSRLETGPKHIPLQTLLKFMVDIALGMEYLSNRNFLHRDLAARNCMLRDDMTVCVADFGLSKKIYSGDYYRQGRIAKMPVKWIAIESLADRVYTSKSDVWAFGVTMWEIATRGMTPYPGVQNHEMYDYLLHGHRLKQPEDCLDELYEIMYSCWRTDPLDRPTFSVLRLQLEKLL

Compound | pIC50 [1] | pIC50 [2] | pIC50 [3] | pIC50 [4]
Cn1cc(-c2cnc(N)c(C(=O)N[C@@H]3CCN(C(=O)Oc4ccc5cc(OCC6CCNCC6)ccc5c4)C3)c2)cn1 [Example 303] | 7.00 to 8.00 | 6.00 to 6.30 |  | 
Cc1cc(-c2ccc(CN3CCN(C)CC3)cc2)ccc1C(=O)N1CC[C@@H](NC(=O)c2cc(-c3cnn(C)c3)cnc2N)C1 [Example 391, (R)-2-amino-5-(1-methyl-1H-pyrazol-4-yl)-N-(1-(3-methyl-4^1-((4-methylpiperazin-1-yl)methyl)-[1,1′-biphenyl]-4-carbonyl)pyrrolidin-3-yl)nicotinamide] |  | < 6.00 | < 6.00 | 
Cc1cc(C(=O)N2CC[C@@H](NC(=O)c3cc(-c4cnn(C)c4)cnc3N)C2)ccc1-c1ccc(CN2CCN(C)CC2)cc1 [Example 392, (R)-2-amino-5-(1-methyl-1H-pyrazol-4-yl)-N-(1-(2-methyl-4^1-((4-methylpiperazin-1-yl)methyl)-[1,1′-biphenyl]-4-carbonyl)pyrrolidin-3-yl)nicotinamide] |  | < 6.00 | 6.00 to 7.00 | 
Nc1ncc(-c2ccc(N3CCOCC3)nc2)cc1C(=O)N[C@@H]1CCN(C(=O)c2ccc(-c3ccccc3)cc2)C1 [Example 559] |  | 6.30 to 7.00 | 7.00 to 8.00 | 
Nc1ncc(-c2ccccc2C(=O)O)cc1C(=O)N[C@@H]1CCN(C(=O)c2ccc(-c3ccc(F)cc3Cl)cc2)C1 [Example 777, (R)-2-(6-amino-5-((1-(2′-chloro-4′-fluoro-[1,1′-biphenyl]-4-carbonyl)pyrrolidin-3-yl)carbarnoyl)pyridin-3-yl)benzoic acid] |  | < 6.00 | < 6.00 | 
Cn1cc(-c2cnc(N)c(C(=O)N[C@@H]3CCN(C(=O)c4ccc(-c5ccc(Oc6ccc(C(=O)O)cc6)cc5)cc4)C3)c2)cn1 [Example 812, (R)-4-((4′-(3-(2-amino-5-(1-methyl-1H-pyrazol-4-yl)nicotinamido)pyrrolidine-1-carbonyl)-[1,1′-biphenyl]-4-yl)oxy)benzoic acid] |  |  | 7.00 to 8.00 | < 6.00
Cn1cc(-c2cnc(N)c(C(=O)N[C@@H]3CCN(C(=O)c4ccc5cc(NC6CCNCC6)ccc5c4)C3)c2)cn1 [Example 816, (R)-2-amino-5-(1-methyl-1H-pyrazol-4-yl)-N-(1-(6-(piperidin-4-ylamino)-2-naphthoyl)pyrrolidin-3-yl)nicotinamide] |  |  | 6.00 to 7.00 | < 6.00
Cn1cc(-c2cnc(N)c(C(=O)N[C@@H]3CCN(C(=O)c4ccc5cc(NC6CCN(CCO)CC6)ccc5c4)C3)c2)cn1 [Example 817, (R)-2-amino-N-(1-(6-((1-(2-hydroxyethyl)piperidin-4-yl)amino)-2-naphthoyl)pyrrolidin-3-yl)-5-(1-methyl-1H-pyrazol-4-yl)nicotinamide] |  |  | 6.00 to 7.00 | < 6.00
CN(c1ccc2cc(C(=O)N3CC[C@@H](NC(=O)c4cc(-c5cnn(C)c5)cnc4N)C3)ccc2c1)C1CCNCC1 [Example 818, (R)-2-amino-N-(1-(6-(methyl(piperidin-4-yl)amino)-2-naphthoyl)pyrrolidin-3-yl)-5-(1-methyl-1H-pyrazol-4-yl)nicotinamide] |  |  | 7.00 to 8.00 | < 6.00
Cn1cc(-c2cnc(N)c(C(=O)N[C@@H]3CCN(C(=O)c4ccc(-c5ccc(CC6CCN(CCO)CC6)cc5)cc4)C3)c2)cn1 [Example 819, (R)-2-amino-N-(1-(4′-((1-(2-hydroxyethyl)piperidin-4-yl)methyl)-[1,1′-biphenyl]-4-carbonyl)pyrrolidin-3-yl)-5-(1-methyl-1H-pyrazol-4-yl)nicotinamide] |  |  | 7.00 to 8.00 | < 6.00
CN(c1ccc2cc(C(=O)N3CC[C@@H](NC(=O)c4cc(-c5cnn(C)c5)cnc4N)C3)ccc2c1)C1CCN(CCO)CC1 [Example 820, (R)-2-amino-N-(1-(6-((1-(2-hydroxyethyl)piperidin-4-yl)(methyl)amino)-2-naphthoyl)pyrrolidin-3-yl)-5-(1-methyl-1H-pyrazol-4-yl)nicotinamide] |  |  | 7.00 to 8.00 | 6.30 to 7.00
CC(/C=C/c1ccc(C(=O)N2CC[C@@H](NC(=O)c3cc(-c4cnn(C)c4)cnc3N)C2)cc1)N1CCN(CCO)CC1 (stereo partly drawn) [Example 823, 2-amino-N-((3R)-1-(4-((E)-3-(4-(2-hydroxyethyl)piperazin-1-yl)but-1-en-1-yl)benzoyl)pyrrolidin-3-yl)-5-(1-methyl-1H-pyrazol-4-yl)nicotinamide] |  |  | 7.00 to 8.00 | < 6.00
Cn1cc(-c2cnc(N)c(C(=O)N[C@@H]3CCN(C(=O)c4ccc(Oc5cccc([N+](=O)[O-])c5)cc4)C3)c2)cn1 [Example 829, (R)-2-amino-5-(1-methyl-1H-pyrazol-4-yl)-N-(1-(4-(3-nitrophenoxy)benzoyl)pyrrolidin-3-yl)nicotinamide] |  |  | < 6.00 | < 6.00
Cn1cc(-c2cnc(N)c(C(=O)N[C@@H]3CCN(C(=O)c4ccc(Oc5cccc(N)c5)cc4)C3)c2)cn1 [Example 830, (R)-2-amino-N-(1-(4-(3-aminophenoxy)benzoyl)pyrrolidin-3-yl)-5-(1-methyl-1H-pyrazol-4-yl)nicotinamide] |  |  | 6.00 to 7.00 | < 6.00
Cn1cc(-c2cnc(N)c(C(=O)N[C@@H]3CCN(C(=O)c4ccc(Oc5ccc([N+](=O)[O-])cc5)cc4)C3)c2)cn1 [Example 831, (R)-2-amino-5-(1-methyl-1H-pyrazol-4-yl)-N-(1-(4-(4-nitrophenoxy)benzoyl)pyrrolidin-3-yl)nicotinamide] |  |  | 6.00 to 7.00 | < 6.00
Cn1cc(-c2cnc(N)c(C(=O)N[C@@H]3CCN(C(=O)c4ccc(Oc5ccc(N)cc5)cc4)C3)c2)cn1 [Example 832, (R)-2-amino-N-(1-(4-(4-aminophenoxy)benzoyl)pyrrolidin-3-yl)-5-(1-methyl-1H-pyrazol-4-yl)nicotinamide] |  |  | < 6.00 | < 6.00
CN(c1ccc(-c2ccc(C(=O)N3CC[C@@H](NC(=O)c4cc(-c5cnn(C)c5)cnc4N)C3)cc2)cc1)c1ccc(N)cc1F [Example 835, (R)-2-amino-N-(1-(4′-((4-amino-2-fluorophenyl)(methyl)amino)-[1,1′-biphenyl]-4-carbonyl)pyrrolidin-3-yl)-5-(1-methyl-1H-pyrazol-4-yl)nicotinamide] |  |  | 6.00 to 7.00 | < 6.00
Cc1cc(N)ccc1N(C)c1ccc(-c2ccc(C(=O)N3CC[C@@H](NC(=O)c4cc(-c5cnn(C)c5)cnc4N)C3)cc2)cc1 [Example 836, (R)-2-amino-N-(1-(4′-((4-amino-2-methylphenyl)(methyl)amino)-[1,1′-biphenyl]-4-carbonyl)pyrrolidin-3-yl)-5-(1-methyl-1H-pyrazol-4-yl)nicotinamide] |  |  | 6.00 to 7.00 | < 6.00
CN(c1ccc(-c2ccc(C(=O)N3CC[C@@H](NC(=O)c4cc(-c5cnn(C)c5)cnc4N)C3)cc2)cc1)c1ccc(N)cc1Cl [Example 837, (R)-2-amino-N-(1-(4′-((4-amino-2-chlorophenyl)(methyl)amino)-[1,1′-biphenyl]-4-carbonyl)pyrrolidin-3-yl)-5-(1-methyl-1H-pyrazol-4-yl)nicotinamide] |  |  | 6.00 to 7.00 | < 6.00
Cn1cc(-c2cnc(N)c(C(=O)N[C@@H]3CCN(C(=O)c4ccc(OCc5cccc(N)c5)cc4)C3)c2)cn1 [Example 838, (R)-2-amino-N-(1-(4-((3-aminobenzyl)oxy)benzoyl)pyrrolidin-3-yl)-5-(1-methyl-1H-pyrazol-4-yl)nicotinamide] |  |  | 6.00 to 7.00 | < 6.00
(R)-2-amino-N-(1-(2-chloro-[1,1′-biphenyl]-4-carbonyl)pyrrolidin-3-yl)-5-(1-methyl-1H-pyrazol-4-yl)nicotinamide [Example 394] |  | < 6.00 | 6.00 to 7.00 | 
(R)-2-amino-N-(1-(2′-chloro-4′-fluoro-[1,1′-biphenyl]-4-carbonyl)pyrrolidin-3-yl)-5-(2-(piperidin-4-ylmethoxy)phenyl)nicotinamide [Example 771] |  |  | 6.00 to 7.00 | < 6.00
(R)-2-amino-N-(1-(4′-(4-hydroxyphenoxy)-[1,1′-biphenyl]-4-carbonyl)pyrrolidin-3-yl)-5-(1-methyl-1H-pyrazol-4-yl)nicotinamide [Example 800] |  |  | 7.00 to 8.00 | < 6.00
